Molecules are shown by their SMILES.

The target of assay [1] is T1, Amine oxidase [flavin-containing] A (Rattus norvegicus, UniProt P21396).
T1 sequence (P21396 whole entry): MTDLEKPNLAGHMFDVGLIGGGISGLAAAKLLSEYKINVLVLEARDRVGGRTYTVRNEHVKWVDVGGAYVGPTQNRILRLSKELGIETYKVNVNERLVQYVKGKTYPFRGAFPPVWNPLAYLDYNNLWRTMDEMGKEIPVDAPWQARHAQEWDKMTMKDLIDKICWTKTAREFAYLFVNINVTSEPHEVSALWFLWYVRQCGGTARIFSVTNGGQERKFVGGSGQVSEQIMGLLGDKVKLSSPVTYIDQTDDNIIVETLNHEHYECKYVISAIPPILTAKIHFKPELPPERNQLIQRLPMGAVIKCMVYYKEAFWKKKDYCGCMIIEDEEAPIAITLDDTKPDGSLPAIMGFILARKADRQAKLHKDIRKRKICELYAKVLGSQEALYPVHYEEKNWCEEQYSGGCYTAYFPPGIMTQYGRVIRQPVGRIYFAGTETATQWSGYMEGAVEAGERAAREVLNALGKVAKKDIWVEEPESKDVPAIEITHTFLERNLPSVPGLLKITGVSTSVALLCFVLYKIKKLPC

Assay [2] has as its target T2, Alpha-1D adrenergic receptor (Homo sapiens, UniProt P25100).
T2 sequence (P25100 whole entry): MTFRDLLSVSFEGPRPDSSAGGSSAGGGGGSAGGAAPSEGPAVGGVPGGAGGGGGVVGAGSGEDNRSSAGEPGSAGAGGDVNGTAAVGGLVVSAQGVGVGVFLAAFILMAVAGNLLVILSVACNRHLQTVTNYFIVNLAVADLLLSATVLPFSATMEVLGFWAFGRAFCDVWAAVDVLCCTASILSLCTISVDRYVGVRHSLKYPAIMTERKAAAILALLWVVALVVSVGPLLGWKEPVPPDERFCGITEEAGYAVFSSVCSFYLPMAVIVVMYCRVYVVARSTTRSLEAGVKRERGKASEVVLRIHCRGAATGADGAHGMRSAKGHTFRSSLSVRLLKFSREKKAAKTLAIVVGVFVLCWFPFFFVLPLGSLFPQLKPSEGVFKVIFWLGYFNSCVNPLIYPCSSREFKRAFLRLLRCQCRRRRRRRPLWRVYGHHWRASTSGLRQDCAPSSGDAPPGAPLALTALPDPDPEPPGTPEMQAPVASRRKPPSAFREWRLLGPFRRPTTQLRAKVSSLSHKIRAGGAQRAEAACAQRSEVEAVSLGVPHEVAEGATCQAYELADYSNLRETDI

A further assay has as its target T3, Nischarin (Bos mutus, UniProt L8IEU8).
T3 sequence (L8IEU8 whole entry): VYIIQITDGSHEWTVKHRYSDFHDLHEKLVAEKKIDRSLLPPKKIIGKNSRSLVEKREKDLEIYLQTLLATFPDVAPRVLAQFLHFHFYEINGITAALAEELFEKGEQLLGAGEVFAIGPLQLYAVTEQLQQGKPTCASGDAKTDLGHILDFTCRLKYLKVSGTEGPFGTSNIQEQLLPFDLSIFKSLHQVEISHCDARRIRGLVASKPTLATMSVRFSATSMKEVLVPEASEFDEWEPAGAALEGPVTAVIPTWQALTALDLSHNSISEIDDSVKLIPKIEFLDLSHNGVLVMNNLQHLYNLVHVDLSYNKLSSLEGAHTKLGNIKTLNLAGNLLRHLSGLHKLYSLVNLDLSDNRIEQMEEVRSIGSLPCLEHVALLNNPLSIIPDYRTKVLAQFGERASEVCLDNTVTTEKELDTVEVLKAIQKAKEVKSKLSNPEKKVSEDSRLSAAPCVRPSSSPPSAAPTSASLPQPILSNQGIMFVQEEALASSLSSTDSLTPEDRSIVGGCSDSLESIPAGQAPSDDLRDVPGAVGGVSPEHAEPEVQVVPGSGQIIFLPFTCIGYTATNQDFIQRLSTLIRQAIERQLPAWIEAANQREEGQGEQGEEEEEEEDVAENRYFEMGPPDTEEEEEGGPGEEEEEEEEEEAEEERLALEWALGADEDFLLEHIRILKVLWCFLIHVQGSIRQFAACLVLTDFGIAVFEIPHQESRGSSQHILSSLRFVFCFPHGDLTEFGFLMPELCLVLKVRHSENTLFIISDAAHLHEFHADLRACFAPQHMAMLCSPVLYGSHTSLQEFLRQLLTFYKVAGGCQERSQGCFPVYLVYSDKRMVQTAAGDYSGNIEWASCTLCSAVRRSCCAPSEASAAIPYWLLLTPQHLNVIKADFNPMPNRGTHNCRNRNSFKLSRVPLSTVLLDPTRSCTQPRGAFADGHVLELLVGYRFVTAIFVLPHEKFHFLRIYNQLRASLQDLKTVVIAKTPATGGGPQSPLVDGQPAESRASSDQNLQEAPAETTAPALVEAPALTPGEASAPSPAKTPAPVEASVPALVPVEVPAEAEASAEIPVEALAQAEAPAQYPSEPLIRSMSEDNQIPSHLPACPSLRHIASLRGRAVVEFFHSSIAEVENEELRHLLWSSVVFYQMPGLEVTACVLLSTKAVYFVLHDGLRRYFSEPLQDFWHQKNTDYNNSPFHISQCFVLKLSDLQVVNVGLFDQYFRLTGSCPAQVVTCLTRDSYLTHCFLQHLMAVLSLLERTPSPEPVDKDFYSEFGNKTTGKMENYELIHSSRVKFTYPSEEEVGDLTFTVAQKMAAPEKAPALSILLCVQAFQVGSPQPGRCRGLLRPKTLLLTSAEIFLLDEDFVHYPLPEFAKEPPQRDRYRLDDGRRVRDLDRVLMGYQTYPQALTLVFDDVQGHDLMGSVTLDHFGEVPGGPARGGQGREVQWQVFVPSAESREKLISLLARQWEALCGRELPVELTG

As a reminder, the Ki is the equilibrium dissociation constant of an inhibitor or competing ligand from its target. A low value points to a stronger hold on the target. On to `Cc1cccc([C@@H](C)c2cnc[nH]2)c1C`, for which the Ki came out at 1000 nM in assay [1], 79.4 nM in assay [2] and 200 nM at Nischarin.

As to `NC1=NC2(CCc3ccccc3C2)CO1` (stereo unspecified) [S18616], the Ki amounted to 1000 nM in assay [1], 25.1 nM in assay [2] and 39.8 nM on Nischarin.

Values taken from BindingDB's records for PubMed 11082457 (Centre De Recherches De Croissy, 2000).
